Here are results for eight compounds from patent US8008304B2, “Substituted propiolic acid amides and their use for producing drugs” (Grüenthal GmbH, priority 2005, dated 2011).

Where a name gives a salt, the structure may show the parent alone.

In one assay the target is T1, mGluR5 receptor (Sus scrofa, UniProt I3LUI7).
T1 construct: from tissue; host or cells: pig brain halves without medulla, cerebellum and pons
T1 sequence (I3LUI7 19-1212): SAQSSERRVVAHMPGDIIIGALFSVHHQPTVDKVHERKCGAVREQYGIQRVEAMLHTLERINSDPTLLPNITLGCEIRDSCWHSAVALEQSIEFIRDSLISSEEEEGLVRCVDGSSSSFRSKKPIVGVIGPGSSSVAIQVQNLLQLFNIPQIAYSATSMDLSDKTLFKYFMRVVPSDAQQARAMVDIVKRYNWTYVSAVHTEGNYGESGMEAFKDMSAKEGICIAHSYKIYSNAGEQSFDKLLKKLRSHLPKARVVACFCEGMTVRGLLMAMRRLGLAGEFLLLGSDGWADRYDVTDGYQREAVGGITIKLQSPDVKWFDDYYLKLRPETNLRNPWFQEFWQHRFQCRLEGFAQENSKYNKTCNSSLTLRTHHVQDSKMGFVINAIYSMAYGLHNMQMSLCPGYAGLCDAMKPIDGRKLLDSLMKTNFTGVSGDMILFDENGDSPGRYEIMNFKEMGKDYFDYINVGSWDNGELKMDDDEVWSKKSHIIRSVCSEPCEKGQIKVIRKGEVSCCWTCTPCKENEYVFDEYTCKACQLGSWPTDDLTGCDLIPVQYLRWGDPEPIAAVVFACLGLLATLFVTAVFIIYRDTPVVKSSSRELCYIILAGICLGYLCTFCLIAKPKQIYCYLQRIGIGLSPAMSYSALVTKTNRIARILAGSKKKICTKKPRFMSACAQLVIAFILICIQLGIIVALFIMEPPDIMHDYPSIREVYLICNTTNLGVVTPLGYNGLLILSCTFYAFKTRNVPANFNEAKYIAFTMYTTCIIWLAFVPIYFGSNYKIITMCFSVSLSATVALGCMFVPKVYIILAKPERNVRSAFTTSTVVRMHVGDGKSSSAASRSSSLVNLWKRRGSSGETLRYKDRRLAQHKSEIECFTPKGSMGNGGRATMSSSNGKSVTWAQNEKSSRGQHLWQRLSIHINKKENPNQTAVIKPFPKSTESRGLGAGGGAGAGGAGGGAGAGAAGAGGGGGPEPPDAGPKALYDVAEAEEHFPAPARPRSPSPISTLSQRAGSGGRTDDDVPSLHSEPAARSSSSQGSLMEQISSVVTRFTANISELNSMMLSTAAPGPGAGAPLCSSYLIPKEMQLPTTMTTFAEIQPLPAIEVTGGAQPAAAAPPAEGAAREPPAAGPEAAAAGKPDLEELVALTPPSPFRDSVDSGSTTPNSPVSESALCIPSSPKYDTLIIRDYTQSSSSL
The experiment in a line: Inhibition of [3H]-MPEP bond in the mGluR5 receptor bond assay (pig brain homogenate). The note with it: 450 μg protein from pig brain homogenate, 5 nM [3H]-MPEP, 60 min, room temperature. Type of assay: binding. The procedure:
Substituted propiolic acid amides of the above-mentioned general formula I are likewise particularly preferred, which, after 60 minutes of incubation in 450 μg protein from pig brain homogenate at a temperature between 20° C. and 25° C. in a concentration of less than 2000 nM, preferably of less than 1000 nM, particularly preferably of less than 700 nM, very particularly preferably of less than 100 nM, even more preferably of less than 30 nM, bring about a 50-percent displacement of [^3H]-2-methyl-6-(3-methoxyphenyl)-ethynylpyridine which is present in a concentration of 5 nM.
Thereby, the determination of the displacement of [^3H]-2-methyl-6-(3-methoxyphenyl)-ethynylpyridine is performed as described in the section Pharmacological Methods, I. Method for determining the inhibition of [^3H]-MPEP-bonding in the mGluR5 receptor bonding assay.
I. Method for Determining the Inhibition of the [^3H]-MPEP Bond in the mGluR5 Receptor Bond Assay
Pig brain homogenate is produced by homogenisation (Polytron PT 3000, Kinematica AG, 10,000 rpm for 90 seconds) of pig brain halves without medulla, cerebellum and pons in buffer pH 8.0 (30 mM Hepes, Sigma, order no. H3375+1 tablet complete to 100 ml, Roche Diagnostics, order no. 1836145) in ratio 1:20 (brain weight/volume) and differential centrifugation at 900×g and 40,000×g. In each case, 450 μg protein from brain homogenate is incubated with 5 nM ^3[H]-MPEP (Tocris, order no. R1212) (MPEP=2-methyl-6-(3-methoxyphenyl)-ethynylpyridine) in 250 μl incubation batches in 96 well microtitration plates and the compounds to be tested (10 μM in the test) in buffer (as above) at room temperature for 60 min.
Thereafter, the batches are filtered with the help of a Brandel Cell Harvester (Brandel, TYP Robotic 9600) on unifilter plates with glass fibre filter mats (Perkin Elmer, order no. 6005177) and subsequently washed with buffer (as above) 3 times with in each case 250 μl per sample. The filter plates are subsequently dried for 60 min at 55° C. 30 μL Ultima Gold™ scintillator is subsequently added per well (Packard BioScience, order no. 6013159) and the samples are measured after 3 hours on the β-counter (Mikrobeta, Perkin Elmer). The unspecific bond is determined by addition of 10 μM MPEP (Tocris, order no. 1212).
In turn, `O=C(C#Cc1ccccc1)N1CCN(c2ccsc2)CC1` [Example 1, 1-(3-phenyl-propiolyl)-4-(thiophene-3-yl)-piperazine hydrochloride] registered an IC50 of 1890 nM.

Take `O=C(C#Cc1ccccc1)N1CCN(c2cscn2)CC1` [Example 2, 1-(3-Phenyl-propiolyl)-4-(thiazol-4-yl)-piperazine]: the IC50 stood at 630 nM.

`Cn1ccnc1N1CCN(C(=O)C#Cc2ccccc2)CC1` [Example 3, 1-(3-phenyl-propiolyl)-4-(1-methyl-imidazol-2-yl)-piperazine hydrochloride] gave an IC50 of 4840 nM.

The compound `C[C@@H]1CN(c2cscn2)CCN1C(=O)C#Cc1cccc(Cl)c1` [Example 4, (R)-2-methyl-1-(3-(3-chloro-phenyl)-propiolyl)-4-(thiazol-4-yl)-piperazine] displayed an IC50 of 16 nM.

For `CC1CN(c2nncs2)CCN1C(=O)C#Cc1cccc(Cl)c1` (stereo not drawn) [Example 5, 2-methyl 1-(3-(3-chloro-phenyl)-propiolyl)-4-(1,3,4-thiadiazol-2-yl)-piperazine], the 50% inhibitory concentration (IC50) amounted to 27 nM.

Take `CN(CCNC(=O)C#Cc1cccc(Cl)c1)c1nncs1` [Example 6, 3-(3-chlorophenyl)-N-(2-(methyl(1,3,4-thiadiazol-2-yl)amino)ethyl)propiolamide]: the IC50 stood at 21 nM.

As for `CN(CCNC(=O)C#Cc1cccc(Cl)c1)c1cncs1` [Example 7, 3-(3-chlorophenyl)-N-(2-(methyl(thiazol-5-yl)amino)ethyl)propiolamide], the IC50 was found to be 0.5 nM.

Regarding `CN(CCNC(=O)C#Cc1cccc(Cl)c1)c1nccn1C` [Example 8, 3-(3-chlorophenyl)-N-(2-(methyl(1-methyl-1H-imidazol-2-yl)amino)ethyl)propiolamide], the IC50 turned out to be 350 nM.

Tested on in another assay: not listed separately
Description: Formaline test in rats (phase 2, chronic pain component). Type of assay: in vivo. The note with it: phase 2 (21 to 27 min after formaline injection). Here is the method:
III. Formaline Test in Rats: The formaline test (Dubuisson, D. and Dennis, S. G., 1977, Pain, 4, 161-174) represents a model for acute and chronic pain. A biphasic nociceptive reaction, which is recorded by observation of three clearly differentiable behavioural patterns, is induced by a single formaline injection into the dorsal side of a rear paw in freely mobile test animals. The reaction has two phases: Phase 1=Immediate reaction (duration up to 10 min; paw shaking, licking), Phase 2=Late reaction (after a rest phase; likewise, paw shaking, licking; duration up to 60 min). The 1st phase reflects a direct stimulation of the peripheral nocisensors with high spinal nociceptive input or glutamate release (acute pain phase); the 2nd phase reflects a spinal and peripheral hypersensitisation (chronic pain phase). In the investigations presented here, the chronic pain component (phase 2) was evaluated. Formaline with a volume of 50 μl and a concentration of 5% is administered subcutaneously into the dorsal side of the right rear paw of each animal. The substances to be tested are administered for 30 min before the formaline injection orally (p.o.), intravenously (i.v.) or intraperitoneally (i.p.). […]
Regarding `C[C@@H]1CN(c2cscn2)CCN1C(=O)C#Cc1cccc(Cl)c1` [Example 4, (R)-2-methyl-1-(3-(3-chloro-phenyl)-propiolyl)-4-(thiazol-4-yl)-piperazine], the “Formaline test (rat) i.v. Reduction in nociceptive behaviour over control at 10 mg/kg” value amounted to 75%.

As a reminder, the IC50 is the concentration needed to halve the response being measured.
